Here are results for 16 compounds from PubChem BioAssay (NCI).

Where “and” joins values, the source holds several entries; their conditions need not be identical. Equal values may be shown once.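 Protocol summary: plate cells (96-well), add compound at 5 concentrations, incubate 48 h, interpolate endpoints linearly. GI50 marks 50% less growth. TGI is the concentration that stops growth completely.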

Test in all cases: NCI-60 cell line screen, 48 h
Experiment [1] relates to UACC-257 melanoma.
Experiment [2] relates to NCI-H460 lung.
Experiment [3] concerns SF-295 CNS.
Experiment [4] has as its system OVCAR-3 ovarian.
The test system of experiment [5] is A498 renal.
Experiment [6] deals with SF-268 CNS.
Experiment [7] concerns A549 NSCLC.
Experiment [8] has as its system HOP-92 NSCLC.
Experiment [9] concerns SNB-19 CNS.

For the compound `O=C1NC2(CCCCC2)C2=C1CCCCC2`, the TGI in experiment [1], in [2], in [3], in [4], in experiment [5] and in experiment [6] was greater than 100 µM in each case. Besides, the TGI in experiment [7], in [8] and in experiment [9] was greater than 100 µM in each case.
Regarding `Cc1c2cc[n+](C)cc2c(C)c2c1[nH]c1ccc(Oc3ccccc3)cc12`, the TGI in [1] is 6.96 µM and 8.42 µM; in experiment [2], 14 µM and 11.4 µM; in experiment [4], > 37.6 µM and 31.7 µM; in [5], greater than 100 µM; in [6] it was 14.7 µM and > 19.9 µM; in experiment [7] it was greater than 100 µM. Besides, the TGI in [8] is 7.37 µM and 6.77 µM; in experiment [9] it was 0.887 µM and 4.09 µM. Besides, the GI50 was 1.64 µM and 1.06 µM in experiment [2]; 0.23 µM in experiment [9].
For the compound `Cn1ncc2c(c1=O)Nc1ccccc1S2(=O)=O`, the TGI in experiment [1], in experiment [2], in experiment [3], in experiment [4], in [5] and in experiment [6] was greater than 100 µM in each case. Moreover, the TGI in experiment [7], in [8] and in experiment [9] was greater than 100 µM in each case.
Regarding `NC1=NN(c2ccccc2)C(=O)C1/C(=N\NC(=O)c1cc2ccccc2cc1O)C(=O)Nc1ccc(Cl)cc1` (stereo not given), the TGI was 80.4 µM in experiment [1]; greater than 100 µM in experiment [2]; greater than 100 µM in [3]; greater than 100 µM in experiment [4]; 98.1 µM in experiment [5]; 89.3 µM in [6]. The TGI in experiment [7] was greater than 100 µM; in experiment [8], 71.3 µM; in experiment [9], greater than 100 µM.
Regarding `CCCCc1c2c(nc3c1CC/C(=C\c1ccccc1)C3=O)CCCC2`, the TGI in experiment [1] amounted to 18.3 µM; in experiment [2] it was 17.7 µM; in [3], 16 µM; in experiment [4], 10.4 µM; in [6], 12.6 µM; in [7], 28 µM. The compound further yielded a TGI in experiment [9] of 12.6 µM.
`O=[N+]([O-])c1cccc(C2=NOC3CCCC23)c1` (stereo not given): the TGI in experiment [1], in experiment [2], in experiment [3], in experiment [4], in [5] and in experiment [6] was greater than 100 µM throughout. Also, the TGI in experiment [7], in [8] and in [9] was greater than 100 µM throughout.
`Cn1nc(-c2ccccc2)c(C(=O)/C=C/c2ccccc2)c(N2CCCC2)c1=O`: the TGI is 32.4 µM in [2]; 26.9 µM in [5]; 64.2 µM in experiment [6]; greater than 100 µM in experiment [7]; 6.23 µM in experiment [8].
With `O=[N+]([O-])C1(CO)COC(CCc2ccccc2)OC1` (stereo not given), the TGI in experiment [1], in experiment [2], in experiment [3], in experiment [4], in experiment [7] and in [8] was greater than 100 µM throughout.
As to `COC(=O)CCSC(=O)Nc1ccccc1Cl`, the TGI in [1], in [2], in [3], in experiment [4], in [5] and in experiment [6] was greater than 100 µM in each case. The TGI in experiment [7] and in experiment [9] was greater than 100 µM throughout.
For the compound `CC1CC2C(=O)N(c3ccccc3)C(=O)C2c2[nH]c3ccccc3c21` (stereo not given), the TGI in experiment [2], in experiment [3], in [4], in experiment [5], in experiment [6] and in [7] was greater than 100 µM throughout.
`Clc1ccc(N=CNc2ccc(-c3nc4ccccc4[nH]3)cc2)cc1`: the GI50 in [1] was greater than 100 µM; in experiment [2], 17.7 µM; in experiment [3], 6.18 µM; in experiment [4] it was 5.35 µM; in [6] it was 19.6 µM; in experiment [7] it was greater than 100 µM. Further, the figures for the GI50 in experiment [8] and in experiment [9] were 59.1 µM and greater than 100 µM, respectively. The TGI in experiment [1], in experiment [2], in experiment [3], in experiment [4], in experiment [6] and in experiment [7] was greater than 100 µM in each case. The TGI in [8] and in [9] was greater than 100 µM each time.
For `CN(C)c1ccc(/C=C2\Cc3ccccc3C2=O)cc1Br`, the TGI in experiment [1], in experiment [2], in experiment [3], in experiment [4], in [5] and in experiment [6] was greater than 100 µM throughout. Further, the TGI in experiment [7] and in experiment [9] was greater than 100 µM each time.
Take `NC1CC(n2ccc(=O)[nH]c2=O)OC1C(O)CO` (stereo not given): the TGI in [1], in experiment [2], in [3], in [4], in experiment [6] and in experiment [7] was greater than 100 µM in each case. The TGI in experiment [8] and in [9] was greater than 100 µM each time.
Take `O=C1COc2cc3c(cc2N1)SCC(=O)N3`: the TGI in [1], in experiment [3], in experiment [4], in experiment [6], in experiment [7] and in experiment [8] was greater than 100 µM in each case. The same compound displayed a TGI in [9] greater than 100 µM.
In the case of `COC(=O)C1=C(C)C(=O)C2(CCCCCC2C(=O)OC)C1` (stereo not given), the TGI in experiment [1], in experiment [2], in [3], in experiment [5], in experiment [6] and in [7] was greater than 100 µM each time. The TGI in experiment [8] and in experiment [9] was greater than 100 µM each time.
Consider `O=c1cccccc1[O-].O=c1cccccc1[O-].O=c1cccccc1[O-].[Dy+3]`, for which the TGI in experiment [1] is greater than 100 µM; in experiment [2], greater than 100 µM; in experiment [3] it was greater than 100 µM; in experiment [4], 41.1 µM; in experiment [5], greater than 100 µM; in experiment [6], greater than 100 µM. The TGI in experiment [7], in experiment [8] and in experiment [9] was greater than 100 µM each time. The GI50 in experiment [5] is 80.7 µM.
